Measured values taken from patent US20130078613A1, “Selection of HCV Treatment” (ROCHE MOLECULAR SYSTEMS, priority 2011, published 2013).
Marks after values point to notes of the source that are not given here.

Assays:
[1] = target: NS5B-directed HCV polymerase (Hepatitis C virus genotype 1b, UniProt Q9WMX2); details: ref [7]; cited from earlier work
CHC genotype 1 or 4 [2] = assay: Clinical Study NV22621; type: in vivo, human
Source text: (§1) The term “response” to treatment is a desirable response to the administration of an agent. Virological endpoints included “early virological response” (EVR), defined as ≧2-log drop in serum HCV RNA from baseline to week 12 (by Cobas Amplicor HCV Monitor Test, v2.0, limit of quantitation 600 IU/mL), complete EVR (cEVR) defined as undetectable HCV RNA (<15 IU/mL) in serum (by Cobas Amplicor HCV Test v2.0, […]) or and “sustained virological response” (SVR), defined as undetectable HCV RNA (<15 IU/mL) at the end of either a 12-week (SVR-12) or a 24-week (SVR-24) untreated follow-up period. The term “sustained rapid virological response” (sRVR) refers to undetectable HCV RNA (<15 IU/mL) during the period of 4 weeks and 22 weeks of treatment. The term “extended rapid virological response” (eRVR) refers to undetectable HCV RNA (<15 IU/mL) during the period of between 4 weeks and 20 weeks of treatment.
Study NV22621 was designed to determine the safety and efficacy of longer treatment duration (24 weeks) of 1000 mg BID RO5024048 in combination with PEG-IFN/RBV in treatment naïve CHC genotype 1 or 4 patients. Patients enrolled in Study NV22621 were randomized to one of two treatment groups (FIG. 1B) (approximately 80 patients per treatment group). In the response-guided treatment group, patients with a sustained RVR (sRVR, defined as undetectable HCV RNA from week 4-22) stopped all therapy at Week 24.
The Roche Clinical Repository (RCR) is an optional program that requires separate consent; data are anonymized to assure patient privacy. The RCR DNA samples were used to determine IL28B status using TaqMan Real-Time PCR. Efficacy endpoints were summarized for the two subgroups, CC vs. non-CC (CT and TT).

HCV [3] = details: combination with PEG-IFN and RBV; cited from earlier work
HCV genotypes (1-4) = details: four main genotypes (1-4); cited from earlier work
CHC genotype 1 or 4 [4] = assay: Clinical Study NV20536; type: in vivo, human; details: for SVR-12 and SVR-24: across RVR-guided arms; for relapse / SVR-12 (%) / SVR-12 n/N / SVR-24 (%) / SVR-24 n/N: sRVR patients
Source text: as §1
Study NV20536 was designed to determine the optimal dose (500 or 1000 mg twice daily [BID]) and duration (8 or 12 weeks) of RO5024048 in combination with PEG-IFN/RBV in treatment-naïve CHC genotype 1 or 4 patients. Patients enrolled in Study NV20536 were randomized to one of five treatment groups (FIG. 1A) (approximately 80 patients per treatment group). In the response-guided treatment groups, patients with a sustained RVR (sRVR, defined as undetectable HCV RNA from week 4-22) stopped all therapy at Week 24.
Patients received double blinded experimental treatment with RO5024048 500 mg BID and standard of care treatment (SOC, Pegasys 180 μg sc qw+Copegus 1000 mg (<75 kg) or 1200 mg (≧75 kg) po qd) or RO5024048 1000 mg BID and SOC respectively, for 12 weeks followed by SOC for 12 weeks. Patients who achieve an RVR, defined as undetectable HCV RNA at week 4, and remain undetectable through week 22 stopped all treatment at week 24. Non-RVR patients received SOC for an additional 24 weeks for a total treatment duration of 48 weeks.
Patients received double blinded experimental treatment with RO5024048 1000 mg BID and SOC for 8 weeks followed by SOC for 16 weeks. Patients who achieve an RVR defined as undetectable HCV RNA at week 4, and remain undetectable through week 22 stopped all treatment at week 24. Non-RVR patients received SOC for an additional 24 weeks for a total treatment duration of 48 weeks. […]
The Roche Clinical Repository (RCR) is an optional program that requires separate consent; data are anonymized to assure patient privacy. The RCR DNA samples were used to determine IL28B status using TaqMan Real-Time PCR for rs12979860. Efficacy endpoints were summarized for the two subgroups, CC vs. non-CC (CT and TT).

NS5B (S282T) = target: T1, NS5B (S282T) (Hepatitis C virus genotype 1b, UniProt Q9WMX2, S2701T); details: sequential passage of replicon cells; cited from earlier work
T1 construct: Amino acid substitution in NS5B (S282T)
T1 sequence (Q9WMX2 2420-3010 S2701T): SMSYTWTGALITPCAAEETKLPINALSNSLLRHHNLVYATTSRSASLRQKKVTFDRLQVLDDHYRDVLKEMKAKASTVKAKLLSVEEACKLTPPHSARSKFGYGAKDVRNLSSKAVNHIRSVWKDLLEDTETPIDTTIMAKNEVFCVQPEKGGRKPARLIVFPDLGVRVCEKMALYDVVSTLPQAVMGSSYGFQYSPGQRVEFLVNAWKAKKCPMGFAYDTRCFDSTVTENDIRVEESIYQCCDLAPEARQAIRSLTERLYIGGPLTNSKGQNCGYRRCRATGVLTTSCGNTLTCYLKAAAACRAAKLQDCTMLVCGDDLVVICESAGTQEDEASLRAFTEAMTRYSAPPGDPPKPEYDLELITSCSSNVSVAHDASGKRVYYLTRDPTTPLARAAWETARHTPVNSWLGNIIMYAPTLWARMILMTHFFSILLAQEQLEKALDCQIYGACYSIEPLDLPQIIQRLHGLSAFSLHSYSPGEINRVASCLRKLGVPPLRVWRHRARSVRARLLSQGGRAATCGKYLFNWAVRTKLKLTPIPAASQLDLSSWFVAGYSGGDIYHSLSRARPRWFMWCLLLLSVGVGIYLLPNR

[5] = extensively converted to RO4995855; cited from earlier work
HCV [6] = details: RBV monotherapy; cited from earlier work
[7] = Group A, 1000 mg 24 wks + P/R RVR-guided, Total, sRVR patients
[8] = Group A, 500 mg 12 wks + P/R RVR-guided, IL28B CC
[9] = Group A, 500 mg 12 wks + P/R RVR-guided, IL28B NonCC
[10] = Group A, 500 mg 12 wks + P/R RVR-guided, Total
[11] = Group B, 1000 mg 8 wks + P/R RVR-guided, IL28B CC
[12] = Group B, 1000 mg 8 wks + P/R RVR-guided, IL28B NonCC
[13] = Group B, 1000 mg 8 wks + P/R RVR-guided, Total
[14] = Group C, 1000 mg 12 wks + P/R RVR-guided, IL28B CC
[15] = Group C, 1000 mg 12 wks + P/R RVR-guided, IL28B NonCC
[16] = Group C, 1000 mg 12 wks + P/R RVR-guided, Total

NS5B-directed HCV polymerase, sequence (Q9WMX2 2420-3010): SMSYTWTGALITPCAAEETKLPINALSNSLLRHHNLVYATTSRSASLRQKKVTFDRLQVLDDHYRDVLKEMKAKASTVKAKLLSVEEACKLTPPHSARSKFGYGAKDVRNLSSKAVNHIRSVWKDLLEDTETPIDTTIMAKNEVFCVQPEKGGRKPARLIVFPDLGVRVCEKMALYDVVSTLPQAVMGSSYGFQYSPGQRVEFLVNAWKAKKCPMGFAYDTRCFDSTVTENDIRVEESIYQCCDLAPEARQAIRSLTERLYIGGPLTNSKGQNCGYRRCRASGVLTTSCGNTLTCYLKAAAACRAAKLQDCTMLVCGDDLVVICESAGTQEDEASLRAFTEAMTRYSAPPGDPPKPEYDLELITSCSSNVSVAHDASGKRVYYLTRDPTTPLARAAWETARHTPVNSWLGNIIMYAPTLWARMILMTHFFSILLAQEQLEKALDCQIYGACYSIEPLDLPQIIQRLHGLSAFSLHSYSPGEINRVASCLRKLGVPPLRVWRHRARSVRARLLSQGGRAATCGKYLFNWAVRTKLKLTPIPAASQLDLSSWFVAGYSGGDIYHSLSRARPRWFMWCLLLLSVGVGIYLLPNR

Compound: CC(C)C(=O)OC[C@H]1O[C@@H](n2ccc(N)nc2=O)[C@](C)(F)[C@@H]1OC(=O)C(C)C [RO5024048, mericitabine]
- IC50 [1]: 610 ± 40 nM
- cEVR (CHC genotype 1 or 4 [2]; 1000-mg group, RCR-consented population): 94%
- SVR-12 n/N (CHC genotype 1 or 4 [2]; Group A, 1000 mg 24 wks + P/R RVR-guided, IL28B CC, sRVR patients): 12/15
- SVR-12 n/N (CHC genotype 1 or 4 [2]; Group A, 1000 mg 24 wks + P/R RVR-guided, IL28B NonCC, sRVR patients): 13/18
- SVR-12 (%) (CHC genotype 1 or 4 [2]; [7]): (75.0%)*
- SVR-12 n/N (CHC genotype 1 or 4 [2]; [7]): 24/32
- sRVR (%) (CHC genotype 1 or 4 [2]; Group A, RO5024048 1000 mg 24 wks + P/R 24/48 wks RVR-guided, N = 52, Total): (63.5%)
- RVR (CHC genotype 1 or 4 [2]; RVR-guided 1000-mg group (24 wks with PEG-IFN/RBV), overall population): 63%
- cEVR (CHC genotype 1 or 4 [2]; RVR-guided 1000-mg group, overall ITT population): 89%
- week-24 virological response (CHC genotype 1 or 4 [2]; RVR-guided 1000-mg group, overall population): 91%
- maximal rate of undetectable viral load (CHC genotype 1 or 4 [2]; non-CC genotype, 24 weeks of triple therapy, at weeks 20 to 24 (data not shown)): > 90%
- antiviral effect of combination (HCV [3]): additive antiviral effect
- in vitro activity across genotypes (HCV genotypes (1-4)): Activity has been demonstrated
- RVR (undetectable HCV RNA at week 4) (CHC genotype 1 or 4 [4]; 500-mg 12-week RVR-guided group, with PEG-IFN/RBV, overall population): 38%
- SVR-12 and SVR-24 (CHC genotype 1 or 4 [4]; CC patients who achieve sRVR and stop all treatment after 24 weeks): 67-90%
- relapse (CHC genotype 1 or 4 [4]; CC, arm A, 12 weeks followup after EOT): 2/8
- relapse (CHC genotype 1 or 4 [4]; CC, arm A, 24 weeks followup after EOT): 2/7
- relapse (CHC genotype 1 or 4 [4]; CC, arm C, 12 weeks followup after EOT): 4/12
- relapse (CHC genotype 1 or 4 [4]; CC, arm C, 24 weeks followup after EOT): 4/12
- SVR-12 (%) (CHC genotype 1 or 4 [4]; [8]): (75.0%)
- SVR-12 n/N (CHC genotype 1 or 4 [4]; [8]): 6/8
- SVR-24 (%) (CHC genotype 1 or 4 [4]; [8]): (85.7%)
- SVR-24 n/N (CHC genotype 1 or 4 [4]; [8]): 6/7
- SVR-12 (%) (CHC genotype 1 or 4 [4]; [9]): (66.7%)
- SVR-12 n/N (CHC genotype 1 or 4 [4]; [9]): 6/9
- SVR-24 (%) (CHC genotype 1 or 4 [4]; [9]): (55.6%)
- SVR-24 n/N (CHC genotype 1 or 4 [4]; [9]): 5/9
- SVR-12 (%) (CHC genotype 1 or 4 [4]; [10]): (70.6%)*
- SVR-12 n/N (CHC genotype 1 or 4 [4]; [10]): 12/17
- SVR-24 (%) (CHC genotype 1 or 4 [4]; [10]): (68.8%)*
- SVR-24 n/N (CHC genotype 1 or 4 [4]; [10]): 11/16
- sRVR (%) (CHC genotype 1 or 4 [4]; Group A, RO5024048 500 mg 12 wks + P/R 24/48 wks RVR-guided, N = 49, Total): (36.7%)
- SVR-12 (%) (CHC genotype 1 or 4 [4]; [11]): (90.0%)
- SVR-12 n/N (CHC genotype 1 or 4 [4]; [11]): 9/10
- SVR-24 (%) (CHC genotype 1 or 4 [4]; [11]): (80.0%)
- SVR-24 n/N (CHC genotype 1 or 4 [4]; [11]): 8/10
- SVR-12 (%) (CHC genotype 1 or 4 [4]; [12]): (38.5%)
- SVR-12 n/N (CHC genotype 1 or 4 [4]; [12]): 5/13
- SVR-24 (%) (CHC genotype 1 or 4 [4]; [12]): (25.0%)
- SVR-24 n/N (CHC genotype 1 or 4 [4]; [12]): 3/12
- SVR-12 (%) (CHC genotype 1 or 4 [4]; [13]): (60.9%)
- SVR-12 n/N (CHC genotype 1 or 4 [4]; [13]): 14/23
- SVR-24 (%) (CHC genotype 1 or 4 [4]; [13]): (50.0%)*
- SVR-24 n/N (CHC genotype 1 or 4 [4]; [13]): 11/22
- sRVR (%) (CHC genotype 1 or 4 [4]; Group B, RO5024048 1000 mg 8 wks + P/R 24/48 wks RVR-guided, N = 49, Total): (46.9%)
- SVR-12 n/N (CHC genotype 1 or 4 [4]; [14]): 8/12
- SVR-24 (%) (CHC genotype 1 or 4 [4]; [14]): (66.7%)
- SVR-24 n/N (CHC genotype 1 or 4 [4]; [14]): 8/12
- SVR-12 n/N (CHC genotype 1 or 4 [4]; [15]): 5/18
- SVR-24 (%) (CHC genotype 1 or 4 [4]; [15]): (22.2%)
- SVR-24 n/N (CHC genotype 1 or 4 [4]; [15]): 4/18
- SVR-12 (%) (CHC genotype 1 or 4 [4]; [16]): (43.3%)
- SVR-12 n/N (CHC genotype 1 or 4 [4]; [16]): 13/30
- SVR-24 (%) (CHC genotype 1 or 4 [4]; [16]): (40.0%)
- SVR-24 n/N (CHC genotype 1 or 4 [4]; [16]): 12/30
- sRVR (%) (CHC genotype 1 or 4 [4]; Group C, RO5024048 1000 mg 12 wks + P/R 24/48 wks RVR-guided, N = 46, Total): (65.2%)
- SVR-12 and SVR-24 (CHC genotype 1 or 4 [4]; non-CC patients who achieve sRVR and stop all treatment after 24 weeks): 22-67%
- relapse (CHC genotype 1 or 4 [4]; non-CC, Arm A, 12 weeks followup after EOT): 3/9
- relapse (CHC genotype 1 or 4 [4]; non-CC, Arm A, 24 weeks followup after EOT): 4/9
- relapse (CHC genotype 1 or 4 [4]; non-CC, Arm C, 12 weeks followup after EOT): 13/18
- relapse (CHC genotype 1 or 4 [4]; non-CC, Arm C, 24 weeks followup after EOT): 14/18
- resistance conferred by NS5B S282T substitution (NS5B (S282T)): low level resistance
- absorption after oral administration [5]: rapidly absorbed

Compound: NC(=O)c1ncn([C@@H]2O[C@H](CO)[C@@H](O)[C@H]2O)n1 [ribavirin, 1-((2R,3R,4S,5R)-3,4-Dihydroxy-5-hydroxymethyl-tetrahydro-furan-2-yl)-1H-[1,2,4]triazole-3-carboxylic acid amide]
- effect on the replication of HCV (HCV [6]): little or no effect
